# Assay: Stability (integrity) testing of amorphous and polymorphic form under storage conditions, RP-HPLC
# Type: physicochemical
# Parameters: Impurity RRT 1.104 / Impurity RRT 1.698: unit not given beside the values
# Summary of the method: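 Amorphous form and three batches of polymorphic Form I of the hemi calcium salt were stored under different atmospheric conditions. Purity measured by RP-HPLC on C18 with UV detection, drug as percent of total absorption; total impurity from summed impurity peak areas, impurities identified by relative retention time.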
# [1] = 25° C./60% RH 12M, hemi calcium salt
# [2] = 30° C./65% RH 1M, hemi calcium salt
# [3] = 30° C./65% RH 2M, hemi calcium salt
# [4] = 30° C./65% RH 3M, hemi calcium salt
# [5] = 30° C./65% RH 6M, hemi calcium salt
# [6] = 30° C./65% RH 9M, hemi calcium salt
# [7] = 30° C./65% RH 12M, hemi calcium salt
# [8] = 40° C./75% RH 1M, hemi calcium salt
# [9] = 40° C./75% RH 2M, hemi calcium salt
# [10] = 40° C./75% RH 3M, hemi calcium salt
# [11] = 40° C./75% RH 6M, hemi calcium salt
# [12] = Initial, listed as Batch 2 of Polymorphic Form I, hemi calcium salt
structure (smiles),measurement,setting,value
"CC(C)c1c(C(=O)Nc2ccc(CO)cc2)c(-c2ccccc2)c(-c2ccc(F)cc2)n1CC[C@@H](O)C[C@@H](O)CC(=O)[O-].CC(C)c1c(C(=O)Nc2ccc(CO)cc2)c(-c2ccccc2)c(-c2ccc(F)cc2)n1CC[C@@H](O)C[C@@H](O)CC(=O)[O-].[Ca+2] [PP00105, (3R, 5R)-7-[2-(4-fluorophenyl)-5-isopropyl-3-phenyl-4-[(4-hydroxymethylphenylamino)carbonyl]-pyrrol-1-yl]-3,5-dihydroxy-heptanoic acid, hemi calcium salt]",Impurity RRT 1.439,25° C./60% RH 12M,0.152
same,Impurity RRT 1.596,25° C./60% RH 12M,0.046
same,Impurity RRT 1.698,25° C./60% RH 12M,0.053
same,Assay,[1],98.25 % W/W
same,Highest Impurity,[1],0.407
same,Impurity RRT 0.935,[1],0.365
same,Impurity RRT 1.045,[1],0.407
same,Impurity RRT 1.640,[1],0.052
same,Total Impurity,[1],1.522
same,Water,[1],5.02 % W/W
same,Description,30° C./65% RH 1M,White
same,Impurity RRT 1.096,30° C./65% RH 1M,0.24
same,Impurity RRT 1.439,30° C./65% RH 1M,0.151
same,Impurity RRT 1.596,30° C./65% RH 1M,0.076
same,Impurity RRT 1.698,30° C./65% RH 1M,0.065
same,Water,30° C./65% RH 1M,4.16 % W/W
same,Assay,[2],98.23 % W/W
same,Highest Impurity,[2],0.444
same,Impurity RRT 0.935,[2],0.396
same,Impurity RRT 1.045,[2],0.444
same,Impurity RRT 1.64,[2],0.06
same,Total Impurity,[2],1.44
same,Description,30° C./65% RH 2M,White
same,Impurity RRT 1.096,30° C./65% RH 2M,0.242
same,Impurity RRT 1.183,30° C./65% RH 2M,0.063
same,Impurity RRT 1.439,30° C./65% RH 2M,0.165
same,Impurity RRT 1.596,30° C./65% RH 2M,0.074
same,Impurity RRT 1.698,30° C./65% RH 2M,0.069
same,Assay,[3],98.20 % W/W
same,Highest Impurity,[3],0.449
same,Impurity RRT 0.935,[3],0.411
same,Impurity RRT 1.045,[3],0.449
same,Impurity RRT 1.64,[3],0.063
same,Total Impurity,[3],1.54
same,Water,[3],4.16 % W/W
same,Description,30° C./65% RH 3M,White
same,Impurity RRT 1.096,30° C./65% RH 3M,0.229
same,Impurity RRT 1.439,30° C./65% RH 3M,0.158
same,Impurity RRT 1.596,30° C./65% RH 3M,0.074
same,Impurity RRT 1.698,30° C./65% RH 3M,0.062
same,Assay,[4],98.14 % W/W
same,Highest Impurity,[4],0.437
same,Impurity RRT 0.935,[4],0.399
same,Impurity RRT 1.045,[4],0.437
same,Impurity RRT 1.64,[4],0.058
same,Total Impurity,[4],1.42
same,Water,[4],5.02 % W/W
same,Description,30° C./65% RH 6M,White
same,Impurity RRT 1.096,30° C./65% RH 6M,0.218
same,Impurity RRT 1.439,30° C./65% RH 6M,0.156
same,Impurity RRT 1.596,30° C./65% RH 6M,0.070
same,Impurity RRT 1.698,30° C./65% RH 6M,0.063
same,Assay,[5],98.09 % W/W
same,Highest Impurity,[5],0.460
same,Impurity RRT 0.935,[5],0.409
same,Impurity RRT 1.045,[5],0.460
same,Impurity RRT 1.640,[5],0.054
same,Total Impurity,[5],1.430
same,Water,[5],4.96 % W/W
same,Description,30° C./65% RH 9M,White
same,Impurity RRT 1.096,30° C./65% RH 9M,0.232
same,Impurity RRT 1.183,30° C./65% RH 9M,0.036
same,Impurity RRT 1.439,30° C./65% RH 9M,0.182
same,Impurity RRT 1.596,30° C./65% RH 9M,0.053
same,Impurity RRT 1.698,30° C./65% RH 9M,0.048
same,Assay,[6],98.07 % W/W
same,Highest Impurity,[6],0.442
same,Impurity RRT 0.935,[6],0.404
same,Impurity RRT 1.045,[6],0.442
same,Impurity RRT 1.640,[6],0.058
same,Total Impurity,[6],1.455
same,Water,[6],5.10 % W/W
same,Description,30° C./65% RH 12M,White
same,Impurity RRT 0.138,30° C./65% RH 12M,0.200
same,Impurity RRT 1.096,30° C./65% RH 12M,0.192
same,Impurity RRT 1.183,30° C./65% RH 12M,0.048
same,Impurity RRT 1.439,30° C./65% RH 12M,0.163
same,Impurity RRT 1.596,30° C./65% RH 12M,0.065
same,Impurity RRT 1.698,30° C./65% RH 12M,0.045
same,Assay,[7],98.35 % W/W
same,Highest Impurity,[7],0.399
same,Impurity RRT 0.935,[7],0.399
same,Impurity RRT 1.045,[7],0.360
same,Impurity RRT 1.640,[7],0.048
same,Total Impurity,[7],1.520
same,Water,[7],4.87 % W/W
same,Description,40° C./75% RH 1M,White
same,Impurity RRT 1.096,40° C./75% RH 1M,0.244
same,Impurity RRT 1.439,40° C./75% RH 1M,0.153
same,Impurity RRT 1.596,40° C./75% RH 1M,0.080
same,Impurity RRT 1.698,40° C./75% RH 1M,0.062
same,Assay,[8],98.15 % W/W
same,Highest Impurity,[8],0.444
same,Impurity RRT 0.935,[8],0.404
same,Impurity RRT 1.045,[8],0.444
same,Impurity RRT 1.64,[8],0.061
same,Total Impurity,[8],1.45
same,Water,[8],4.71 % W/W
same,Description,40° C./75% RH 2M,White
same,Impurity RRT 1.096,40° C./75% RH 2M,0.234
same,Impurity RRT 1.183,40° C./75% RH 2M,0.072
same,Impurity RRT 1.439,40° C./75% RH 2M,0.175
same,Impurity RRT 1.596,40° C./75% RH 2M,0.079
same,Impurity RRT 1.698,40° C./75% RH 2M,0.065
same,Assay,[9],98.19 % W/W
same,Highest Impurity,[9],0.457
same,Impurity RRT 0.935,[9],0.416
same,Impurity RRT 1.045,[9],0.457
same,Impurity RRT 1.64,[9],0.066
same,Total Impurity,[9],1.56
same,Water,[9],4.35 % W/W
same,Description,40° C./75% RH 3M,White
same,Impurity RRT 1.096,40° C./75% RH 3M,0.229
same,Impurity RRT 1.439,40° C./75% RH 3M,0.165
same,Impurity RRT 1.596,40° C./75% RH 3M,0.078
same,Impurity RRT 1.698,40° C./75% RH 3M,0.06
same,Assay,[10],98.09 % W/W
same,Highest Impurity,[10],0.442
same,Impurity RRT 0.935,[10],0.413
same,Impurity RRT 1.045,[10],0.442
same,Impurity RRT 1.64,[10],0.056
same,Total Impurity,[10],1.44
same,Water,[10],4.45 % W/W
same,Description,40° C./75% RH 6M,White
same,Impurity RRT 0.138,40° C./75% RH 6M,0.270
same,Impurity RRT 1.096,40° C./75% RH 6M,0.217
same,Impurity RRT 1.439,40° C./75% RH 6M,0.146
same,Impurity RRT 1.596,40° C./75% RH 6M,0.073
same,Impurity RRT 1.698,40° C./75% RH 6M,0.052
same,Assay,[11],98.14 % W/W
same,Highest Impurity,[11],0.410
same,Impurity RRT 0.935,[11],0.377
same,Impurity RRT 1.045,[11],0.410
same,Impurity RRT 1.640,[11],0.045
same,Total Impurity,[11],1.590
same,Water,[11],5.45 % W/W
same,Description,Initial,White
same,Impurity RRT 1.096,Initial,0.229
same,Impurity RRT 1.439,Initial,0.168
same,Impurity RRT 1.596,Initial,0.075
same,Impurity RRT 1.698,Initial,0.062
same,Assay,[12],98.45 % W/W
same,Highest Impurity,[12],0.457
same,Impurity RRT 0.935,[12],0.413
same,Impurity RRT 1.045,[12],0.457
same,Impurity RRT 1.64,[12],0.057
same,Total Impurity,[12],1.46
same,Water,[12],4.92 % W/W
